Data on two compounds can be found in patent publication US20230158034A1, “CO-TREATMENT WITH CDK4/6 AND CDK2 INHIBITORS TO SUPPRESS TUMOR ADAPTATION TO CDK2 INHIBITORS” (Pfizer Inc., priority 2020, published 2023).

Test [1] concerns Kras^+/LSLG12V; Trp53^L/L lung tumors. The experiment in a line: Mouse lung tumor model, tumor volume by CT scans. Type of test: in vivo. Here is the method: (§1) To test the potential compensatory relationship between CDK2 and CDK4/6 in vivo, an established mouse lung tumor model driven by KRAS^G12V and TRP53 mutations was used. Kras^+/LSLG12V, Trp53^L/L mice intra-nasally infected with adenoviral particles encoding Cre recombinase developed lung tumors with a latency of 5 months. Once tumor development was detected by CT scans, animals were treated with either vehicle or palbociclib (70 mg/kg QD) for 28 days and tumor volumes were subsequently measured by CT scans at the end of the treatment period.
Mice: Kras^+/LSLG12V Trp53^L/L and Cdk2^−/− mice have been previously described (Guerra et al., 2003; Jonkers et al., 2001; Ortega et al., 2003). Compound mice using the following transgenes: Kras^+/LSLG12V, (Guerra et al., 2003); Trp53^L/L (Lee et al., 2012), and Cdk2^−/− (Ortega et al., 2003) were generated for this study. All animal experiments were approved by the Ethical Committees of the Spanish National Cancer Research Centre (CNIO), the Carlos III Health Institute and the Autonomous Community of Madrid (PROEX 270/14) and were performed in accordance with the guidelines stated in the International Guiding Principles for Biomedical Research Involving Animals, developed by the Council for International Organizations of Medical Sciences (CIOMS). Mice were housed in specific-pathogen-free conditions at CNIO's Animal Facility (AAALAC, JRS:dpR 001659). Female and male mice were used for the experiments. All mice were genotyped at the CNIO's Genomic Unit. […]
Micro CT imaging: Image studies were done by the Molecular Imaging Core Unit at the CNIO. […] Tumor volume was calculated as follows: (short axis x short axis x long axis/2).
Pharmacological treatment in mice: Kras^+/LSLG12V; Trp53^L/L; Cdk2^−/− and Kras^+/LSLG12V; Trp53^L/L; Cdk2^+/+ mice were infected with 10^6 pfu of Ad-Cre. Once tumors were detected by CT, mice harboring at least one tumor bigger than 3 mm^3 were enrolled in the different treatment groups. […] Drug efficacy was monitored by CT measurements.

Test [2] deals with CDK2 T-loop phosphorylation, Cyclin E1, p21. The experiment in a line: Western blots of palbociclib-treated lung tumors. Type of test: in vivo, mouse. The conditions noted are these: palbociclib 70 mg/kg QD for 28 days. Here is the method: as §1
For western blots in FIG. 7B, protein extraction was performed in protein lysis buffer (50 mM Tris-HCl pH 7.4, 150 mM NaCl, 0.5% NP-40) supplemented with a cocktail of protease and phosphatase inhibitors (complete Mini, Roche, 11836153001; Phosphatase Inhibitor Cocktail 2 and 3, Sigma, P5726 and P0044). Protein concentrations were measured using Bradford (Bio-Rad) method. […] of protein extracts obtained from tumor tissue were separated on NUPAGE™ 4-12% Bis-Tris Midi gels (Invitrogen), transferred to a nitrocellulose membrane (GE Healthcare) and blotted with primary antibodies. Primary antibodies were detected with goat secondary antibodies directed against mouse or rabbit IgGs (HRP, Dako, and Alexa Fluor 680, Invitrogen) and visualized with ECL Western Blot detection solution (GE Healthcare).
For orientation: In western blotting, separated proteins are transferred to a membrane and probed.

Test [3] relates to phosphorylated peptides containing a minimal CDK consensus motif (SP or TP) in MCF7 cells. The test is described as follows: Phospho-proteomics (mass spectrometry) of CDK substrate phosphorylation after PF3600. Type of test: cell-based, Homo sapiens. Here is the method:
CDK2 substrate dynamics were globally assessed through phospho-proteomics.
Phospho-peptide enrichment was performed as previously described (Lapek et al., 2017b). Lyophilized phospho-peptides were then TMT-labeled and fractionated by reverse phase basic pH fractionation and fractions combined as previously described (Edwards and Haas, 2016). Fractions were lyophilized and stored at […] until MS analysis. For LC-MS2/MS3 analysis, samples were reconstituted in 10 μL of 5% acetonitrile in 5% formic acid and 8 μL of each fraction was injected on the Orbitrap Fusion Lumos for analysis.
Peptides were eluted on a 165-minute gradient of 7-32% solvent B (80% acetonitrile in 0.1% formic acid) at 300 nL/min on a PepMap RSLC C18 column (2 μm, 100 Å, 75 μm×50 cm) heated to 60° C. Spectra were acquired in Top Speed mode, with a 5 second cycle. MS1 data were collected in the Orbitrap at 60000 resolution across a range of 500-1500 m/z. An automatic gain control (AGC) target of 2×10^5 was used with a maximum injection time of 100 ms. MS2 data were acquired in the ion trap with a rapid scan rate, maximum injection time of 70 ms, and an AGC target of 2×10^4. The quadrupole was used for isolation, with an isolation window of 0.5 m/z. […]
Data were normalized in a multistep process as previously described (Lapek et al., 2017a). […] All phospho data was processed and analyzed at the peptide level.

For `CC(=O)c1c(C)c2cnc(Nc3ccc(N4CCNCC4)cn3)nc2n(C2CCCC2)c1=O` [palbociclib], the tumor size entry in test [1] (palbociclib 70 mg/kg QD for 4 weeks, Trp53^L/L, Cdk2^−/− mice, p=0.037) is reported as “significantly reduced tumor size”. Besides, the “tumor volume fold change vs vehicle” value in test [1] (palbociclib 70 mg/kg QD for 28 days, Trp53^L/L mice (Cdk2^+/+)) is “no significant reduction in tumor burden”. For the same compound, in test [2], the “CDK2 T-loop phosphorylation and Cyclin E1 in tumors (western blot)” value is “upregulation of CDK2 T-loop phosphorylation and Cyclin E1”; the “p21 in tumors (western blot)” value was “significant downregulation of the CDK inhibitor p21”.
As to `C[C@@]1(O)CCC[C@H]1n1c(=O)c(C(F)F)cc2cnc(NC3CCN(S(C)(=O)=O)CC3)nc21` [PF3600, 6-(difluoromethyl)-8-[(1R,2R)-2-hydroxy-2-methylcyclopentyl]-2-{[1-(methylsulfonyl)-piperidin-4-yl]amino}pyrido[2,3-d]pyrimidin-7(8H)-one], the tumor volumes entry in test [1] (PF3600 50 mg/kg BID for 4 weeks, Trp53^L/L mice) is on record as “significantly reduced tumor volumes”. Moreover, the “number of SP/TP peptides whose phosphorylation was significantly reduced (p<0.05)” value in test [3] (25 nM PF3600, 1 hr) came to 40 peptides. Moreover, the “fate of the reduced phosphopeptides at 24 hr” value in test [3] (25 nM PF3600, 24 hr) is “vast majority of these rebounded to control levels”.
